Measurements reported in patent publication US8906925B2, “Pyrido[4,3-B]indoles containing rigid moieties” (Medivation Technologies, Inc., priority 2008, dated 2014).

How the values were obtained:
histamine receptor H1 = histamine receptor H1 (Homo sapiens, UniProt P35367); assay: Histamine H1 radioligand binding ([3H]Pyrilamine); details: read-out: Histamine Binding (1 μM) H1, percent inhibition of specific binding, 1 μM
Outline: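 Values are percent inhibition of specific [3H]pyrilamine (1.2 nM) binding with compounds at ≤1 μM (1% DMSO vehicle); 180 min incubation at 25 °C, pH 7.4 Tris buffer, on CHO-expressed human H1 receptor; 1 μM pyrilamine defined nonspecific binding, bound ligand counted after filtration.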

[1] = target: human dopamine D2L receptor (Homo sapiens, UniProt P14416); assay: Dopamine D2L radioligand binding ([3H]Spiperone); details: compound at 1 μM; […] [3H]Spiperone; read-out: Inhibition of ligand binding, Dopamine D2L (percent inhibition of specific binding)
Source text: Non-specific binding was estimated in the presence of […] Haloperidol. Receptor proteins were filtered and washed, the filters were then counted to determine [^3H]Spiperone specifically bound. […] Biochemical assay results are presented as the percent inhibition of specific binding in Table 9.

Chain of histamine receptor H1 (P35367 whole entry): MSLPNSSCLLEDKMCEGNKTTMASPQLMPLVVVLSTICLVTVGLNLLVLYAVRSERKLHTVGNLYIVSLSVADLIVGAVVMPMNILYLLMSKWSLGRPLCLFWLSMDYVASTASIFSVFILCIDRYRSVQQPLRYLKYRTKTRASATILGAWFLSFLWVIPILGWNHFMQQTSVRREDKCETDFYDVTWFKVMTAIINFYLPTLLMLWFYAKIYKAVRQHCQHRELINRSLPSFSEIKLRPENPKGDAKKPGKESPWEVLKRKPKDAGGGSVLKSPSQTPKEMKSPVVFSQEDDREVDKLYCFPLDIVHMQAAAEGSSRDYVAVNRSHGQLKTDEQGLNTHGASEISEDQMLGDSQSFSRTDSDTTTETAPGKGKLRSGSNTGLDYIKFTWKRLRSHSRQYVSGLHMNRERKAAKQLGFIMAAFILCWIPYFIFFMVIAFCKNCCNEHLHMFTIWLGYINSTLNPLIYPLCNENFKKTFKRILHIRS
Chain of human dopamine D2L receptor (P14416 whole entry): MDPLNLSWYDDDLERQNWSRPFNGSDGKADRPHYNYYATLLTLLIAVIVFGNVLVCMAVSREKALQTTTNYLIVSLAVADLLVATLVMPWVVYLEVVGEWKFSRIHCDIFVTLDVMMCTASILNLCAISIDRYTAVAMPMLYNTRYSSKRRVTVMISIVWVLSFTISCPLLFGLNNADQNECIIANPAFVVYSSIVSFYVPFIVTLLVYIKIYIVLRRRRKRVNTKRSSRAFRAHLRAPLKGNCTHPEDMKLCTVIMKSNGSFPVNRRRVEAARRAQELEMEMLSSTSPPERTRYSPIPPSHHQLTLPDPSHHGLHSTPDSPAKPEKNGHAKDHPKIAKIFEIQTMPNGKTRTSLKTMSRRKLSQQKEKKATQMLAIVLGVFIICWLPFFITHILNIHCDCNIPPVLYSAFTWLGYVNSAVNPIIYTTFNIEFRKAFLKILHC

Row | Structure (SMILES) | inhibition at 1 µM (histamine receptor H1) | inhibition at 1 µM [1]
1 | C/C(=C\n1c2c(c3cc(C)ccc31)CN(CCc1ccccc1)CC2)c1ccncc1 [compound 412, (E)-8-methyl-2-phenethyl-5-(2-(pyridin-4-yl)prop-1-enyl)-2,3,4,5-tetrahydro-1H-pyrido[4,3-b]indole] | 27% | 94%
2 | C/C(=C\n1c2c(c3cc(Cl)ccc31)CN(CCC(C)(C)O)CC2)c1ccc(F)cc1 [compound 414, (E)-4-(8-chloro-5-(2-(4-fluorophenyl)prop-1-enyl)-3,4-dihydro-1H-pyrido[4,3-b]indol-2(5H)-yl)-2-methylbutan-2-ol] | 61% | 100%
3 | CN1CCc2c(c3cc(Cl)ccc3n2/C=C/c2ccccc2)C1 [compound 415, (E)-8-chloro-2-methyl-5-styryl-2,3,4,5-tetrahydro-1H-pyrido[4,3-b]indole] | 97% | 95%
4 | Cc1ccc2c(c1)c1c(n2/C=C(\F)c2ccc(Br)nc2)CCN(C)C1 [compound 416, (Z)-5-(2-(6-bromopyridin-3-yl)-2-fluorovinyl)-2,8-dimethyl-2,3,4,5-tetrahydro-1H-pyrido[4,3-b]indole] | 91% | 20%
5 | C/C(=C/n1c2c(c3cc(Cl)ccc31)CN(C)CC2)c1ccncc1C [compound 417, (Z)-8-chloro-2-methyl-5-(2-(3-methylpyridin-4-yl)prop-1-enyl)-2,3,4,5-tetrahydro-1H-pyrido[4,3-b]indole] | 48% | 87%
6 | CO/C(=C(/C)n1c2c(c3cc(C)ccc31)CN(C)CC2)c1ccncc1 [compound 418, (Z)-5-(1-methoxy-1-(pyridin-4-yl)prop-1-en-2-yl)-2,8-dimethyl-2,3,4,5-tetrahydro-1H-pyrido[4,3-b]indole] | 33% | 14%
7 | Cc1ccc2c(c1)c1c(n2/C(=C(/F)c2ccc(C)nc2)c2ccc(C)nc2)CCN(C)C1 [compound 419] | 52% | 20%
8 | COc1ccc(/C(F)=C(/c2ccc(OC)nc2)n2c3c(c4cc(C)ccc42)CN(C)CC3)cn1 [compound 420, (E)-5-(2-fluoro-1,2-bis(6-methoxypyridin-3-yl)vinyl)-2,8-dimethyl-2,3,4,5-tetrahydro-1H-pyrido[4,3-b]indole] | 13% | 29%
9 | C/C(=C(/C)n1c2c(c3cc(C)ccc31)CN(C)CC2)c1ccc(F)cc1 [compound 421, (E)-5-(3-(4-fluorophenyl)but-2-en-2-yl)-2,8-dimethyl-2,3,4,5-tetrahydro-1H-pyrido[4,3-b]indole] | 93% | 79%
10 | CNC(=O)c1ccc(/C(F)=C(/c2ccc(C(=O)NC)c(F)c2)n2c3c(c4cc(C)ccc42)CN(C)CC3)cc1F [compound 423, (E)-4,4′-(1-(2,8-dimethyl-3,4-dihydro-1H-pyrido[4,3-b]indol-5(2H)-yl)-2-fluoroethene-1,2-diyl)bis(2-fluoro-N-methylbenzamide)] | 31% | -10%
11 | CNC(=O)c1ccc(/C(F)=C/n2c3c(c4cc(C)ccc42)CN(C)CC3)cc1F [compound 424, (Z)-4-(2-(2,8-dimethyl-3,4-dihydro-1H-pyrido[4,3-b]indol-5(2H)-yl)-1-fluorovinyl)-2-fluoro-N-methylbenzamide] | 43% | 20%
12 | Cc1ccc2c(c1)c1c(n2/C(=C(/F)c2ccncc2)c2ccncc2)CCN(C)C1 [compound 425, (E)-5-(2-fluoro-1,2-di(pyridin-4-yl)vinyl)-2,8-dimethyl-2,3,4,5-tetrahydro-1H-pyrido[4,3-b]indole] | 4% | 6%
13 | C/C(=C\c1ccccc1)n1c2c(c3cc(C)ccc31)CN(C)CC2 [compound 428, (E)-2,8-dimethyl-5-(1-phenylprop-1-en-2-yl)-2,3,4,5-tetrahydro-1H-pyrido[4,3-b]indole] | 97% | 57%
14 | C/C(=C/c1ccccc1)n1c2c(c3cc(C)ccc31)CN(C)CC2 [compound 429, (Z)-2,8-dimethyl-5-(1-phenylprop-1-en-2-yl)-2,3,4,5-tetrahydro-1H-pyrido[4,3-b]indole] | 101% | 30%
15 | COc1ccc(/C(F)=C/n2c3c(c4cc(C)ccc42)CN(C)CC3)cn1 [compound 430, (Z)-5-(2-fluoro-2-(6-methoxypyridin-3-yl)vinyl)-2,8-dimethyl-2,3,4,5-tetrahydro-1H-pyrido[4,3-b]indole] | 72% | 25%
16 | CNC(=O)c1ccc(/C(C)=C/n2c3c(c4cc(C)ccc42)CN(C)CC3)cc1 [compound 435] | 11% | 71%
17 | C/C(=C\n1c2c(c3cc(C)ccc31)CN(C)CC2)c1ccc(C(=O)N(C)C)cc1 [compound 436] | 12% | 69%
18 | Cc1ccc2c(c1)c1c(n2/C=C(\F)c2cscn2)CCN(C)C1 [compound 438, (Z)-4-(2-(2,8-dimethyl-3,4-dihydro-1H-pyrido[4,3-b]indol-5(2H)-yl)-1-fluorovinyl)thiazole] | 92% | 17%
19 | COc1ccc(/C(C)=C/n2c3c(c4cc(C)ccc42)CN(C)CC3)cn1 [compound 441, (E)-5-(2-(6-methoxypyridin-3-yl)prop-1-enyl)-2,8-dimethyl-2,3,4,5-tetrahydro-1H-pyrido[4,3-b]indole] | 91% | 64%
20 | CC(=O)N(C)c1ccc2c(c1)c1c(n2/C=C(\C)c2ccc(F)cc2)CCN(C)C1 [compound 443, (E)-N-(5-(2-(4-fluorophenyl)prop-1-enyl)-2-methyl-2,3,4,5-tetrahydro-1H-pyrido[4,3-b]indol-8-yl)-N-methylacetamide] | -5% | 92%

Results, then the molecule that gave them:

Row | inhibition at 1 µM (histamine receptor H1) | inhibition at 1 µM [1] | Structure (SMILES)
21 | 0% | 55% | C/C(=C\n1c2c(c3cc(C)ccc31)CN(C=O)CC2)c1ccncc1 [compound 411, (E)-8-methyl-5-(2-(pyridin-4-yl)prop-1-enyl)-3,4-dihydro-1H-pyrido[4,3-b]indole-2(5H)-carbaldehyde]
22 | 16% | 60% | CO/C(=C\n1c2c(c3cc(C)ccc31)CN(C)CC2)c1ccncc1 [compound 413, (Z)-5-(2-methoxy-2-(pyridin-4-yl)vinyl)-2,8-dimethyl-2,3,4,5-tetrahydro-1H-pyrido[4,3-b]indole]
23 | 8% | 68% | C/C(=C\n1c2c(c3cc(C)ccc31)CN(CCF)CC2)c1ccncc1 [compound 422, (E)-2-(2-fluoroethyl)-8-methyl-5-(2-(pyridin-4-yl)prop-1-enyl)-2,3,4,5-tetrahydro-1H-pyrido[4,3-b]indole]
24 | 50% | 32% | Cc1ccc2c(c1)c1c(n2/C=C(\F)c2ccncc2)CCN(C)C1 [compound 426, (Z)-5-(2-fluoro-2-(pyridin-4-yl)vinyl)-2,8-dimethyl-2,3,4,5-tetrahydro-1H-pyrido[4,3-b]indole]
25 | 1% | 17% | CC(=O)CN1CCc2c(c3cc(C)ccc3n2/C=C(\C)c2ccncc2)C1 [compound 427, (E)-1-(8-methyl-5-(2-(pyridin-4-yl)prop-1-enyl)-3,4-dihydro-1H-pyrido[4,3-b]indol-2(5H)-yl)propan-2-one]
26 | 33% | 80% | CNc1ccc2c(c1)c1c(n2/C=C(\C)c2ccc(F)cc2)CCN(C)C1 [compound 431, (E)-5-(2-(4-fluorophenyl)prop-1-enyl)-N,2-dimethyl-2,3,4,5-tetrahydro-1H-pyrido[4,3-b]indol-8-amine]
27 | 46% | 79% | CCCCNc1ccc2c(c1)c1c(n2/C=C(\C)c2ccc(F)cc2)CCN(C)C1 [compound 432, (E)-N-butyl-5-(2-(4-fluorophenyl)prop-1-enyl)-2-methyl-2,3,4,5-tetrahydro-1H-pyrido[4,3-b]indol-8-amine]
28 | 13% | 61% | CNc1ccc2c(c1)c1c(n2/C=C(\C)c2ccncc2)CCN(C)C1 [compound 433, (E)-N,2-dimethyl-5-(2-(pyridin-4-yl)prop-1-enyl)-2,3,4,5-tetrahydro-1H-pyrido[4,3-b]indol-8-amine]
29 | 44% | 15% | C/C(=C\n1c2c(c3cc(N4CCN(C)CC4)ccc31)CN(C)CC2)c1ccncc1 [compound 437, (E)-2-methyl-8-(4-methylpiperazin-1-yl)-5-(2-(pyridin-4-yl)prop-1-enyl)-2,3,4,5-tetrahydro-1H-pyrido[4,3-b]indole]
30 | 9% | 16% | CC(=O)N(C)c1ccc2c(c1)c1c(n2/C=C(\C)c2ccncc2)CCN(C)C1 [compound 439, (E)-N-methyl-N-(2-methyl-5-(2-(pyridin-4-yl)prop-1-enyl)-2,3,4,5-tetrahydro-1H-pyrido[4,3-b]indol-8-yl)acetamide]
31 | 4% | 16% | COCCNc1ccc2c(c1)c1c(n2/C=C(\C)c2ccncc2)CCN(C)C1 [compound 440]
32 | 29% | 77% | C/C(=C\n1c2c(c3cc(N(C)C)ccc31)CN(C)CC2)c1ccc(F)cc1 [compound 442, (E)-5-(2-(4-fluorophenyl)prop-1-enyl)-N,N,2-trimethyl-2,3,4,5-tetrahydro-1H-pyrido[4,3-b]indol-8-amine]
33 | -13% | 36% | CCCCNc1ccc2c(c1)c1c(n2/C=C(\C)c2ccncc2)CCN(C)C1 [compound 444, (E)-N-butyl-2-methyl-5-(2-(pyridin-4-yl)prop-1-enyl)-2,3,4,5-tetrahydro-1H-pyrido[4,3-b]indol-8-amine]
